Assay results published in EP1785417A2, “Novel non-psychotropic cannabinoids” (priority 2000, dated 2001).

Tests used:
[1] = Body weight gain during staircase testing after transient MCAo; assay type: in vivo, rats; conditions: compared to base line
Method: (§1) Animals were allowed to recover from the surgery for five days. The mild food deprivation was re-employed during the days following the ischemic insult. They were tested in the staircase box using the above method for 9-12 days. Animals were weighed twice a week during this period.
Animals were kept under mild food deprivation during the staircase testing (except during weekends). Under these conditions, the following results were observed: • Sham and PRS-211,095 10 mg/kg treated rats gained the maximal body weight (15 and 17% respectively compared to base line). […] These differences were not statistically different.

transient MCAo in rats = test: Transient MCAo evaluated by the staircase test; assay type: in vivo; conditions: for reduction of infarct volume compared to vehicle: not statistically different
Method: The materials for this procedure are identical to those from Physiological Example 5, except for the different concentrations of PRS-211,095. The procedural differences are as follows: • Male Sprague Dawley rats, 230-270 gr (Harlan, Israel) were used. The following compounds and their respective concentrations were tested: • Dexanabinol and analogs PRS-211,095 and PRS-211,220 in PEG ethanol cosolvent 50 mg/ml. Dexanabinol, the analogs and their vehicle were diluted in Intralipid® 20% (Pharmacia) prior to drug administration.
The procedure is essentially as described in Montoya et al. (Montoya, Campbell-Hope, Pemberton and Dunnet, J. Neurosci. Meth. 36:219-228, 1991) Animals were kept under mild food deprivation for 3-5 days, receiving 15-gr. food once a day (between 16:00 and 17:00) and free access to water. Animals were trained prior to the test for 3-5 days according to the protocol of Sharkey et. al. (Sharkey, Crawford, Butcher and Martson, Stroke 27:2282-2286, 1996).
In brief, the staircase box contains two rows of seven stairs in each. Two 45 mg food pellets were placed on each step. Animals were placed in the box for 15 minutes sessions. At the end of the session the number of eaten (grasped) and displaced pellets was counted and recorded. Animals were tested twice a day, 4 hours apart. The first session was performed between 8-9 AM and second between 12-13 PM. The animals were trained until they grasped (ate) at least 8 pellets from each set of stairs for two consecutive sessions. Up to one week after the end of the successful training session the animals underwent transient MCAo. Transient MCAo was performed in essentially the same manner as described in Physiological example 5 with the following modification at step i: • Two minutes prior to thread removal rats were re-anesthetized and administered IV with Dexanabinol 5mg/kg, analogs PRS-211,220 or PRS-211,095 at 0.5, 2.5, 5 or 10 mg/kg or vehicle 5 ml/kg. One additional group was sham-treated.
as §1
At the end of the evaluation period, animals were euthanized with pentobarbitone 100 mg/kg IP. The animals were perfused through the heart with heparinized 4% formaldehyde solution in PBS (pH 7.4). Brains were then removed, and kept in the same solution for at least 24h. Then the brains - from the rostral side of the cortex to the cerebellum- were sunk in 30% sucrose in PBS, cryosectioned (20 µm), dried and stained with thionin for histological evaluation of the brain infarct volume. Eight sections at the levels of: 3.3;+2.8;+1.8; +0.8; -0.4;-1.4; -2.2; and -3.4 from Bregma were measured (Swanson, Rat Brain Atlas, 1992). Sections were captured by a CCD camera (V-tech MP-470) and image analyzed (Scion image 1.62A). Infarct size was determined from the series of the 8 sections by either calculation of the infarct volume (mm3) by summing the series of mean lesion areas of two adjacent sections multiplied by the distance between them or calculation of the mean infarct size as percentage of the contralateral hemisphere size; calculation of the mean of the surviving ipsilateral side as percentage of the contralateral hemisphere size; calculation of the mean ipsilateral side ventricle as percentage of the contralateral hemisphere ventricle.
• a. The infarct size was compared using ANOVA (analysis of variance) followed by Duncan's post hoc test. • b. […]

| Structure (SMILES) | body weight gain ([1]; 0.5 mg/kg) | body weight gain ([1]; 2.5 mg/kg) | body weight gain ([1]; 5 mg/kg) | body weight gain ([1]; 10 mg/kg) | contralateral performance, pellet consumption (transient MCAo in rats; 0.5 mg/kg) | contralateral performance, pellet consumption (transient MCAo in rats; 2.5 mg/kg) | infarct volume, protection (transient MCAo in rats; 2.5 mg/kg, histopathology) | contralateral performance, pellet consumption (transient MCAo in rats; 5 mg/kg) | reduction of infarct volume compared to vehicle (transient MCAo in rats; 5 mg/kg, histopathology) | contralateral performance, pellet consumption (transient MCAo in rats; 10 mg/kg) | Mortality Rate(%) (transient MCAo in rats; Table 4, 0.5 mg/kg IV) | No. Dead Animals (transient MCAo in rats; Table 4, 0.5 mg/kg IV) | Mortality Rate(%) (transient MCAo in rats; Table 4, 2.5 mg/kg IV) | No. Dead Animals (transient MCAo in rats; Table 4, 2.5 mg/kg IV) | Mortality Rate(%) (transient MCAo in rats; Table 4, 5 mg/kg IV) | No. Dead Animals (transient MCAo in rats; Table 4, 5 mg/kg IV) | Mortality Rate(%) (transient MCAo in rats; Table 4, 10 mg/kg IV) | No. Dead Animals (transient MCAo in rats; Table 4, 10 mg/kg IV) | Mortality Rate(%) (transient MCAo in rats; Table 5, 0.5 mg/kg IV) | No. Dead Animals (transient MCAo in rats; Table 5, 0.5 mg/kg IV) |
| --- | --- | --- | --- | --- | --- | --- | --- | --- | --- | --- | --- | --- | --- | --- | --- | --- | --- | --- | --- | --- |
| CCCCCCC(C)(C)c1cc(O)c2c(c1)OC(C)(C)[C@H]1CC=C(Cn3ccnc3)C[C@H]21 (single isomer, unassigned) [211,095-000] | did not gain weight | did not gain weight | 4% | 17% | moderately improved pellet consumption | moderately improved pellet consumption | No protection | robust improvement | 35% | robust improvement | 21% | 3 | 30% | 3 | 0% | 0 | 9% | 1 | – | – |
| CCCCCCC(C)(C)c1cc(O)c2c(c1)OC(C)(C)[C@H]1CC=C(CO)C[C@H]21 [211,007-000 HU-211, 1,1 dimethyl heptyl-(3 S,4S)-7-hydroxy-Δ^6-tetrahydrocannabinol, reference compound] | – | – | 7% | – | No improvement | – | – | – | 35% | – | – | – | – | – | 0% | 0 | – | – | 36% | 4 |
